Laboratory results from patent US11352352B2, “Aminopyrimidine compound, preparation method therefor and use thereof” (BEIJING ADAMADLE BIOTECHNOLOGY LIMITED LIABILITY COMPANY, priority 2017, dated 2022).

How the values were obtained:
Assay in all cases: Cell proliferation inhibition experiment, CellTiter-Glo (CTG) method
Format in all cases: cell-based
NCI-H1975 = settings: for IC50: NCI-H1975 cells, CTG, 3 days; for A-431/NCI-H1975 Selectivity: ratio of A-431 IC50 to NCI-H1975 IC50
Outline: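 NCI-H1975 cells with viability above 90% by trypan blue were seeded at 90 μL per well in black 96-well plates and incubated overnight at 37° C., 5% CO2. Compounds were added at nine concentrations in triplicate, and viability was measured with CellTiter-Glo luminescence on EnVision. IC50 came from non-linear S-curve fitting in GraphPad Prism 5.0.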

PC-9 = PC-9 cells, 3 days
Outline: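 Cells in log-phase growth (viability above 90% by trypan blue) were seeded at 90 μL per well in black-walled, clear-bottom 96-well plates and incubated overnight at 37° C., 5% CO2. A T0 plate was read the next day. Test compounds were added at nine concentrations in triplicate with a solvent control. Viability was measured by CellTiter-Glo luminescence on EnVision, and IC50 came from non-linear S-curve fitting in GraphPad Prism 5.0.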

A-431 = A-431 cells, 3 days
Outline: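 For each line, compound is added at nine threefold-spaced concentrations, highest 30 μM (A-431) or 1.111 μM (NCI-H1975, PC-9), and cells grow 3 days at 37 °C. CellTiter-Glo luminescence gives survival relative to solvent control, fitted to yield IC50.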

Row | Compound | IC50 (NCI-H1975) [nM] | A-431/NCI-H1975 Selectivity (NCI-H1975) | IC50 (PC-9) [nM] | IC50 (A-431) [nM] | IC50 (NCI-H1975; Homo sapiens, NCI-H1975, 72 h) [nM] | IC50 (PC-9; Homo sapiens, PC-9, 72 h) [nM] | IC50 (A-431; Homo sapiens, A-431, 72 h) [nM]
1 | C=CC(=O)Nc1cc(Nc2cc(-c3ccc4c(cnn4C)c3)ncn2)c(OC)cc1N1CCC(N2CCOCC2)CC1 [compound 208] | 20 | 54.8 | 10.7 | 1100 |  |  | 
2 | C=CC(=O)Nc1cc(Nc2cc(-c3ccc4c(cnn4CC)c3)ncn2)c(OCC)cc1N1C[C@@H](C)N(C)[C@@H](C)C1 [compound 91] |  | 21.3 |  |  | 62.2 | 47.2 | 1320
3 | C=CC(=O)Nc1cc(Nc2cc(-c3ccc4c(cnn4C)c3)ncn2)c(OCC)cc1NCCN(C)C [compound 123] |  | 51.0 |  |  | 13.7 | 15.5 | 698
4 | C=CC(=O)Nc1cc(Nc2cc(-c3ccc4cnn(C)c4c3)ncn2)c(OC(F)F)cc1N1CCC(N(CC)CC)CC1 [compound 167] |  |  |  |  | 16.5 | 17.1 | 1050
5 | C=CC(=O)Nc1cc(Nc2cc(-c3ccc4c(cnn4C)c3)ncn2)c(OC(F)F)cc1N1CCC(N2CCN(C(C)C)CC2)CC1 [compound 147] |  | 53.2 |  |  | 18.4 | 24.7 | 978
6 | C=CC(=O)Nc1cc(Nc2nccc(-c3ccc4c(cnn4C)c3)n2)c(OC)cc1OCCN(C)C [compound 237] |  | 84.1 |  |  | 21.7 | 44.5 | 1820
7 | C=CC(=O)Nc1cc(Nc2cc(-c3cc4cnn(C)c4cc3F)ncn2)c(OC)cc1N(C)C1CCN(C)C1 (stereo not drawn) [compound 195] |  | 70.5 |  |  | 20.4 | 19.5 | 1440
8 | C=CC(=O)Nc1cc(Nc2cc(-c3ccc4c(cnn4C)c3)ncn2)c(OCC)cc1N(C)CCNC(C)C [compound 271] |  | 94.9 |  |  | 25.2 | 77.7 | 2390
9 | C=CC(=O)Nc1cc(Nc2cc(-c3ccc4cnn(C)c4c3)ncn2)c(OC(F)F)cc1OCCN(C)C [compound 170] |  | 44.1 |  |  | 37.4 | 28 | 1650
10 | C=CC(=O)Nc1cc(Nc2cc(-c3ccc4c(cnn4C)c3)ncn2)c(OC)cc1N(C)[C@@H]1CCN(C)C1 [compound 110] |  |  |  |  | 8 | 6.9 | 599
11 | C=CC(=O)Nc1cc(Nc2cc(-c3ccc4cnn(C)c4c3)ncn2)c(OC(F)F)cc1N1CCC(N2C[C@@H](C)N(C)[C@@H](C)C2)CC1 [compound 163] |  | 45.1 |  |  | 18.5 | 13.8 | 834
12 | C=CC(=O)Nc1cc(Nc2cc(-c3ccc4c(cnn4C)c3)ncn2)c(OC)cc1N1CCN(C2COC2)CC1 [compound 218] |  | 86.6 |  |  | 21.2 | 9.2 | 1830
13 | C=CC(=O)Nc1cc(Nc2nccc(-c3ccc4c(cnn4C)c3)n2)c(OC)cc1C(=O)N(C)CCN(C)C [compound 290] |  | 52.9 |  |  | 30.8 | 36.5 | 1630
14 | C=CC(=O)Nc1cc(Nc2cc(-c3ccc4c(cnn4C)c3)ncn2)c(OC)cc1N(C)CCN1CCOCC1 [compound 38] |  | 43.7 |  |  | 75.9 | 89.7 | 3310
15 | C=CC(=O)Nc1cc(Nc2cc(-c3ccc4c(cnn4C)c3)ncn2)c(OC)cc1C(=O)N1CCN(C)CC1 [compound 12] |  | 77.7 |  |  | 53.1 | 56.9 | 4130
16 | C=CC(=O)Nc1cccc(Nc2nc(Nc3ccc4c(cnn4C)c3)ncc2F)c1 [known compound 296, reference compound] |  | 15.9 |  |  | 90.7 | 121 | 1440
17 | C=CC(=O)Nc1cc(Nc2cc(-c3ccc4c(cnn4C)c3)ncn2)c(OC(F)F)cc1NCCN(C)C [compound 122] |  | 111.5 |  |  | 5.2 | 11.6 | 580
